Results from patent US5210089A, “D-rhamnono-1,5-lactone” (Monsanto Company, priority 1992, dated 1993).
pIC50, pKi: −log10 of the molar value. Where a name gives a salt, the structure may show the parent alone. Read-outs that look alike come from different tables or passages of the source.

Assays:
Lysosomal α-fucosidase = biological target: T1, Lysosomal α-fucosidase (Homo sapiens, UniProt P04066); test: Human liver glycosidase assay, lysosomal α-fucosidase; type: biochemical; conditions: read-out: Inhibition (%) at 1 mM, lysosomal α-fucosidase
T1 construct: human liver extracts; from tissue; host or cells: human liver extracts
T1 sequence (P04066 32-466): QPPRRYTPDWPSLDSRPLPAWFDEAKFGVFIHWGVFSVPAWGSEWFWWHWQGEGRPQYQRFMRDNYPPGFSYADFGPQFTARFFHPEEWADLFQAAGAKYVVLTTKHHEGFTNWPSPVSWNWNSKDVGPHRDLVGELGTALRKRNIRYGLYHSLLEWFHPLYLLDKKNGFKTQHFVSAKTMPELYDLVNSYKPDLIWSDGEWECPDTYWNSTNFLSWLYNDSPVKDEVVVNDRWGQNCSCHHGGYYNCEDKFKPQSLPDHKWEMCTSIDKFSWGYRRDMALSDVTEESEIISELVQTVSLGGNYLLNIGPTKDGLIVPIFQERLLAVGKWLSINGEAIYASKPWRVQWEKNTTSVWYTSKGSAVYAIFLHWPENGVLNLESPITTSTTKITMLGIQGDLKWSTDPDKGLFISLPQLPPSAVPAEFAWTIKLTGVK
Procedure: (§1) Melting points were recorded on a Kofler hot block. Proton nuclear magnetic resonance (δH) spectra were recorded on Varian Gemini 200 (at 200 MHz), Bruker WH 300 (300 MHz), or Bruker AM 500 (500 MHz) spectrometers. Carbon nuclear magnetic resonance (δC) spectra were recorded on a Varian Gemini 200 (50 MHz) or a Bruker 250 (62.9 MHz) spectrometer. Multiplicities were assigned using DEPT sequence on the Gemini and by off resonance decoupling on the Bruker. Spectra run in D2 O were referenced to methanol as an internal standard. All chemical shifts are quoted on the δ-scale. Infrared spectra were recorded on a Perkin-Elmer 297, or on a Perkin-Elmer 781 spectrophotometer. Mass spectra were recorded on VG Micromass 30F, ZAB lF, Masslab 20-250 or Trio-1 GCMS (DB-5 column) spectrometers using desorption chemical ionization (NH3 DCI), electron impact (EI), chemical ionization (NH3 CI) and fast atom bombardment (FAB) techniques, as stated. […] Concentrations were given in g/100 ml. Hydrogenations were run under an atmosphere of hydrogen gas maintained by inflated balloon. Microanalyses were performed by the microanalysis service of the DysonPerrins laboratory, Oxford UK. Thin layer chromatography (t.l.c.) was carried out on aluminum sheets coated with 60F254 silica. Plates were developed using either 5% v/v concentrated sulphuric acid in methanol, 0.2% w/v cerium (IV) sulphate and 5% ammonium molybdate in 2M sulphuric acid and 0.5% ninhydrin in methanol. Flash chromatography was carried out using Sorbsil C60 40/60 silica. Ion-exchange chromatography was performed using Dowex 50W-X8 (H) and Sigma CG 400 (Cl) resins. The resins were washed with 2M hydrochloric acid and 2M sodium hydroxide solution, respectively, and subsequently with distilled water, prior to use. Solvents and commercially available reagents were dried and purified before use according to standard procedures; dichloromethane was refluxed over and distilled from calcium hydride, N,N-dimethylformamide was distilled under reduced pressure from calcium hydride, methanol was distilled from magnesium methoxide, pyridine was distilled from, and stored over, potassium hydroxide and tetrahydrofuran was distilled from a purple solution of sodium benzophenone ketyl immediately before use. Hexane was distilled at 68° C. before use to remove involatile fractions. 2,3-O-Isopropylidene-L-gulono-1,4-lactone (9) [H. Ogura et al., J. Oro. Chem. 37, 72 (1972); G. W. J. Fleet Tetrahedron 45, 319 (1989)]and 2,3-O-isopropylidene-D-gulono-1,4-lactone (15) [L. M. Lerner et al., J. Org. Chem. 33, 1780 (1968)]were prepared from D- and L-Chem. gulonolactones [purchased from the Sigma Chemical Company] as reported previously. See, e.g., Fleet, U.S. Pat. No. 4,861,892. Human liver glycosidases were assayed in the absence and presence [1 mM] of each of the compounds using the appropriate buffered 4-methylumbellifeeryl-glycosides as substrates, as described previously. [B. Winchest et al., Biochem. J. 265, 277 (1990)]. Naringinase was assayed using pnitrophenyl α-L-rhamnoside (1.75 mM) as substrates, according to Romero [C. Romero et al., Anal. Biochem. 149, 566 (1985)].
(§2) The enzymes included human liver glycosidases and naringinase. The latter enzyme is a readily available endo-L-rhamnosidase described by Romero et al., Anal. Biochem. 149, 566 (1985).

[1] = test system: glycoprotein processing mannosidase I; conditions: literature; cited from earlier work
Lysosomal α-mannosidase = biological target: T2, Lysosomal α-mannosidase (Homo sapiens, UniProt O00754); test: Human liver glycosidase assay, lysosomal α-mannosidase; type: biochemical; parameters: human liver extracts; from tissue; host or cells: human liver extracts; conditions: for inhibition at 1000 µM: 1 mM compound, 4-methylumbelliferyl-glycoside substrate
T2 sequence (O00754 50-1011): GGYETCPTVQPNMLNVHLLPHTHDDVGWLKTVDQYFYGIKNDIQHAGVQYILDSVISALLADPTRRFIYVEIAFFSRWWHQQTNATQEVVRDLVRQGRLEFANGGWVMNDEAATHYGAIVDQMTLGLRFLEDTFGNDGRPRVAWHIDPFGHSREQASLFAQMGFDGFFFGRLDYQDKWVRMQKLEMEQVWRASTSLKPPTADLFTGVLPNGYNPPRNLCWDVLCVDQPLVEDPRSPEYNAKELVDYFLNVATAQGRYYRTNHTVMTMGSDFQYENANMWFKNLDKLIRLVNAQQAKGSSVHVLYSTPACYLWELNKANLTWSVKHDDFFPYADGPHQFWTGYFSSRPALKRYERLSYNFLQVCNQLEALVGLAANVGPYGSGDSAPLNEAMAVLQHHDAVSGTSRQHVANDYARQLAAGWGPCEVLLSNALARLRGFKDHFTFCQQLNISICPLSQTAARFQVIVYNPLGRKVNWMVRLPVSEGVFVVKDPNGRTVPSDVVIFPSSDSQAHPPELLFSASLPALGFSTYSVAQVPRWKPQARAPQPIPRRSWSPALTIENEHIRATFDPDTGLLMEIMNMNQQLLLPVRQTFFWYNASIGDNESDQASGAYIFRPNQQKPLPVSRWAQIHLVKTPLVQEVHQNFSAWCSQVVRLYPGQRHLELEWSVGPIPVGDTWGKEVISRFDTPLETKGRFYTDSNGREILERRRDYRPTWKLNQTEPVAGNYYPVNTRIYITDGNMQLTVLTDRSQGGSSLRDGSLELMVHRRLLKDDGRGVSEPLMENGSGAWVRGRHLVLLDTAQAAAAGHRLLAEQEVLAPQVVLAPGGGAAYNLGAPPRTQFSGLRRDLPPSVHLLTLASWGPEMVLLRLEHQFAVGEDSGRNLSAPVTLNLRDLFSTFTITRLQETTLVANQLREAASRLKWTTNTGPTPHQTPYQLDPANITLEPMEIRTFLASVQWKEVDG
Procedure: as §1, §2

α-arabinosidase = test: Human liver glycosidase assay, α-arabinosidase; type: biochemical; conditions: 1 mM compound
Procedure: (§3) Melting points were recorded on a Kofler hot block. Proton nuclear magnetic resonance (δH) spectra were recorded on Varian Gemini 200 (at 200 MHz), Bruker WH 300 (300 MHz), or Bruker AM 500 (500 MHz) spectrometers. Carbon nuclear magnetic resonance (δC) spectra were recorded on a Varian Gemini 200 (50 MHz) or a Bruker 250 (62.9 MHz) spectrometer. Multiplicities were assigned using DEPT sequence on the Gemini and by off resonance decoupling on the Bruker. Spectra run in D2 O were referenced to methanol as an internal standard. All chemical shifts are quoted on the δ-scale. Infrared spectra were recorded on a Perkin-Elmer 297, or on a Perkin-Elmer 781 spectrophotometer. Mass spectra were recorded on VG Micromass 30F, ZAB lF, Masslab 20-250 or Trio-1 GCMS (DB-5 column) spectrometers using desorption chemical ionization (NH3 DCI), electron impact (EI), chemical ionization (NH3 CI) and fast atom bombardment (FAB) techniques, as stated. […] Concentrations were given in g/100 ml. Hydrogenations were run under an atmosphere of hydrogen gas maintained by inflated balloon. Microanalyses were performed by the microanalysis service of the DysonPerrins laboratory, Oxford UK. […]
as §2

mannosidases = conditions: literature; cited from earlier work
[2] = test system: α-rhamnosidase (naringinase); test: Naringinase assay with p-nitrophenyl α-L-rhamnoside; type: biochemical; conditions: 1 mM compound; p-nitrophenyl α-L-rhamnoside 1.75 mM
Procedure: as §1, §2

β-mannosidase = biological target: T3, β-mannosidase (Homo sapiens, UniProt O00462); conditions: literature; cited from earlier work
T3 sequence (O00462 18-879): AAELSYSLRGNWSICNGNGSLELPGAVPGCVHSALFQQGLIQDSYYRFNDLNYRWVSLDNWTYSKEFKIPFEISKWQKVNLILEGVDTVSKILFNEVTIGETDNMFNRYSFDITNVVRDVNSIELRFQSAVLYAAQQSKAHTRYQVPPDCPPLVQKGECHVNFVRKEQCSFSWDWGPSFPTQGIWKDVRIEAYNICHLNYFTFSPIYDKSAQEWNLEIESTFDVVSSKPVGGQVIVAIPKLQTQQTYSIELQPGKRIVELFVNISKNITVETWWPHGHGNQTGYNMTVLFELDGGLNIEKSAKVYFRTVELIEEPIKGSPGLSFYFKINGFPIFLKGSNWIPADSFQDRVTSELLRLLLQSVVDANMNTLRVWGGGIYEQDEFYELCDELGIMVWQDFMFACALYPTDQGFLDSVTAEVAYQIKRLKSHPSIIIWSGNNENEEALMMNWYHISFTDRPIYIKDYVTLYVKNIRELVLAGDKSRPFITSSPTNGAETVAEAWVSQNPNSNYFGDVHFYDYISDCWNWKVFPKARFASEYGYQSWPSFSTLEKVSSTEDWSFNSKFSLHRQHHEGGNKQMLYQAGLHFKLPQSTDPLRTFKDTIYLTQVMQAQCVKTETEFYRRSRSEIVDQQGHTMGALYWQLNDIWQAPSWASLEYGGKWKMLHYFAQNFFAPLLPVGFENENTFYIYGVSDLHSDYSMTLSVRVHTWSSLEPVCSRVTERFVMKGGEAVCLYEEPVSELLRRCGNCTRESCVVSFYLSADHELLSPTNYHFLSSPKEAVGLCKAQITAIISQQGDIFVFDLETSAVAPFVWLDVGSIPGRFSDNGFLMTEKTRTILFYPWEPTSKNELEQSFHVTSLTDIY

human liver mannosidases = conditions: literature; cited from earlier work
bovine α-L-fucosidase = biological target: T4, bovine α-L-fucosidase (Bos taurus, UniProt Q2KIM0); conditions: literature; cited from earlier work
T4 sequence (Q2KIM0 23-468): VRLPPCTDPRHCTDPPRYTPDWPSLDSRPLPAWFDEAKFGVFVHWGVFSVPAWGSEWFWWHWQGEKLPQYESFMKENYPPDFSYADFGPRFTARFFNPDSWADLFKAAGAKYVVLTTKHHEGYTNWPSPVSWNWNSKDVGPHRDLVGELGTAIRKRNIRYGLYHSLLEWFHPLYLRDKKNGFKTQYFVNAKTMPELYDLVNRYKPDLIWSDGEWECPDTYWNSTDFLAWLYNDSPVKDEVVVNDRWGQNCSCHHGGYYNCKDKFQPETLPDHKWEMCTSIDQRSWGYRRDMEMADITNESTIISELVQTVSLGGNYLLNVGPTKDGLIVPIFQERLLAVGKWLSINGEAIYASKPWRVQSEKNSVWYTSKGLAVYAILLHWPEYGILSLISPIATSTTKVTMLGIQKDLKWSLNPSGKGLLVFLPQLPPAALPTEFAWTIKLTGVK

[3] = test system: N-acetyl-β-D-hexosaminidase; test: Human liver glycosidase assay, N-acetyl-β-D-hexosaminidase; type: biochemical; conditions: 1 mM compound
Procedure: as §3, §2

[4] = human liver, read-out: Ki, lysosomal α-mannosidase

Row | Compound | inhibition at 1000 µM (Lysosomal α-fucosidase; 1 mM compound, human liver) [%] | Inhibition of glycoprotein processing mannosidase (in words) [1] | inhibition at 1000 µM (Lysosomal α-mannosidase; human liver) [%] | pKi (Lysosomal α-mannosidase; [4]) | Inhibition (%) at 1 mM, α-arabinosidase (α-arabinosidase) [%] | Inhibition (%) at 1 mM, α-rhamnosidase (naringinase) [2] [%] | also measured
1 | OC[C@@H](O)[C@H]1NC[C@@H](O)[C@H]1O [1,4-dideoxy-1,4-iminomannitol (3), 1,4-dideoxy-1,4-iminomannitol] | 24 | strong | 89 | 4.89 | 66 | – | Inhibition of many mannosidases (in words) (mannosidases): strong
2 | C[C@@H]1NC[C@H](O)[C@H](O)[C@H]1O [L-Rhamnojirimycin (7), 1,5-Imino-1,5,6-trieoxy-L-mannitoI hydrochIoride] | – | – | 19 | – | – | 0 | –
3 | C[C@H]1NC[C@@H](O)[C@@H](O)[C@@H]1O [D-Rhamnojirimycin (5), 1,5-amino-1,5,6-trideoxy-D-mannitol hydrochloride] | – | – | 55 | – | – | 10 | pIC50 (Lysosomal α-mannosidase; human liver, read-out: I50, lysosomal α-mannosidase): 3.00
4 | O[C@H]1[C@H]2[C@H](O)CCCN2C[C@H]1O [swainsonine] | – | – | – | – | – | – | Inhibition of β-mannosidase (in words) (β-mannosidase): fail to inhibit
5 | C[C@@H](O)[C@H]1NC[C@@H](O)[C@H]1O [1,4-dideoxy-1,4-imino-6-deoxy-mannitol] | 21 | – | 100 | 5.89 | 91 | – | Inhibition of human liver mannosidases (in words) (human liver mannosidases): excellent inhibitor
6 | OC[C@H]1NC[C@@H](O)[C@@H](O)[C@@H]1O [DMJ (1), deoxymannojirimycin] | – | potent inhibitor | – | – | – | – | inhibition at 1000 µM (Lysosomal α-fucosidase): 92%; Inhibition of bovine α-L-fucosidase (in words) (bovine α-L-fucosidase): potent inhibitor; Inhibition (%) at 1 mM, N-acetyl-β-D-hexosaminidase [3]: 54%; pKi (Lysosomal α-mannosidase): 3.12
